Assay results as given in patent publication US10576126B2, “Antitumor agent” (NATIONAL UNIVERSITY CORPORATION ASAHIKAWA MEDICAL UNIVERSITY, priority 2016, dated 2020).
“Also recorded” adds a separate entry of the source. Like-named read-outs stand apart in the source and are kept apart here. Blank lines part the entries; values can stand above or below the compound they belong to. Where a SMILES comes first, the peptide text is derived from it. [ ]: non-standard residue; d: D form. Orn(N5-OH,N5-Ac) = CC(=O)N(O)CCC[C@H](N)C(=O)O

Assays:
[1] = test system: rat intestinal epithelial cell line IEC-18
[2] = test system: colorectal cancer cell line Caco2/bbe; assay: SRB assay, colorectal cancer cell line Caco2/bbe; assay type: cell-based
Protocol: (§1) L. casei ATCC334, LGG ATCC53103, L. coryniformis ATCC25600 and L. fermentis ATCC23271 were purchased from ATCC. These microorganisms were cultured overnight at 37° C. using MRS broth (Difco) and then transferred to MEM and cultured for one day. The cultured medium was centrifuged at 5,000×g for 10 minutes to collect the supernatant, which was filtered through a 0.2 μm filter and used as the culture supernatant in the following examples.
(§2) By using the colorectal cancer cell lines Caco2/bbe, SKCO-1 and SW620 as test cells and the culture supernatants of LGG ATCC53103, L. casei ATCC334, L. coryniformis ATCC25600 and L. fermentis ATCC23271 as measurement samples, an antitumor activity of each supernatant was measured by SRB-assay.

[3] = test system: colorectal cancer cell line SW620; assay: TUNEL staining of SW620; assay type: cell-based; conditions: SW620, 0.1 μg/mL
[4] = test system: pancreatic cancer cell line KP1N; assay: Antitumor activity, pancreatic cancer cell line KP1N; assay type: cell-based
[5] = test system: pancreatic cancer cell line Miapaca; assay: Antitumor activity, pancreatic cancer cell line Miapaca; assay type: cell-based
[6] = test system: colorectal cancer cell line SW620; assay: SW620 subcutaneous transplantation in BALB/c-nude mice; assay type: in vivo; conditions: 10 μg/day to the transplantation site, daily, observed for 9 days, vs PBS
Source text: 2×10^6 cells of colorectal cancer cell line SW620 were transplanted subcutaneously into the back of BALB/c-nude mice. […] The appearance of the mice on day 1 after transplantation and on day 9 after transplantation are shown in FIG. 6, and the change in tumor mass volume is shown in FIG. 7, respectively.

[7] = test system: colorectal cancer cell line HCT116; assay: SRB assay, colorectal cancer cell line HCT116; assay type: cell-based
PARP = assay: Western blotting for PARP in SW620; assay type: cell-based; conditions: ferrichrome-treated SW620, Western blotting
Source text: (§3) Total proteins recovered from the ferrichrome-treated colorectal cancer cell line SW620 using mammalian cell extraction kit (BioVision) were subjected to Western blotting using specific antibodies for cleaved caspase-3 and PARP (Cell Signaling), respectively.

[8] = test system: gastric cancer cell line MKN7; assay: Antitumor activity, gastric cancer cell line MKN7; assay type: cell-based
[9] = test system: colorectal cancer cell line SW620; assay: SRB assay, colorectal cancer cell line SW620; assay type: cell-based
Protocol: as §1, §2
This fraction was subjected to mass spectrometry (TOF, ionization method: micro ESI) using Nano Frontier elD Liquid Chromatograpy Mass Spectrometer (Hitachi High-technologies), and a chart shown in FIG. 3A was obtained. The peak at m/z 763.2 in this chart was approximately consistent with that in the chart obtained for commercial ferrichrome (Sigma-Aldrich) by mass spectrometry in a similar mannar (FIG. 3B). By using commercially available ferrichrome as a measurement sample and the colorectal cancer cell line SW620 as a test cell, an antitumor activity was measured.

[10] = test system: pancreatic cancer cell line bxpc3; assay: SRB assay, pancreatic cancer cell line bxpc3; assay type: cell-based
cleaved caspase-3 = assay: Western blotting for cleaved caspase-3 in SW620; assay type: cell-based; conditions: ferrichrome-treated SW620, Western blotting
Source text: as §3

[11] = Blood AST, ALT and serum iron in C57/BL6 mice; assay type: in vivo; conditions: oral or intravenous, 10 μg or 100 μg/day for 7 days, vs controls
Protocol: Blood AST (aspartate aminotransferase), ALT (alanine aminotransferase), and serum iron were measured in C57/BL6 mice (n=5) after oral or intravenous administration of 10 μg or 100 μg of ferrichrome/day for 7 days.

[12] = test system: tumor in the large intestine; assay: AOM-DSS chemical carcinogenic mice, intraperitoneal administration; assay type: in vivo; conditions: 100 μg intraperitoneally once every 2 days for 49 days, vs PBS
Protocol: Azoxymethane (AOM) was administered intraperitoneally at 10 mg/kg to BALB/c mice (6 weeks old, male). Following 1 week breeding after AOM treatment, mice were administered drinking water containing dextran sulfate sodium (DSS, MP bio) diluted to 1% with distilled water by free access for 1 week. After a 1-week wash-out period, 100 μg of ferrichrome dissolved in PBS was intraperitoneally administered once every 2 days for 49 days under normal breeding conditions. After breeding, the large intestine was taken out from the mice and the tumor area was measured.
(§4) Normal mice not administered AOM and DSS and chemical carcinogenic mice intraperitoneally administered PBS alone were prepared, respectively, and the tumor area in the large intestine was measured in the same manner. Photographs showing the appearance of the large intestine in each mouse are shown in FIG. 25, and tumor areas in the large intestine are shown in FIG. 26.

[13] = test system: DNA damage-inducible transcript 3 (DDIT3); assay: DDIT3 expression in SW620; assay type: cell-based
Protocol: Changes in mRNA expression between ferrichrome-treated and untreated colorectal cancer cell line SW620 were measured by high-throughput sequence analysis using a MetaCore software program. […] DDIT3 is a protein known to be involved in Bax-Bak mitochondrial permeation and JNK signaling (Tabas I, Ron D. Nat Cell Biol. 2011 March; 13(3): 184-90).

[14] = test system: colorectal cancer cell line HT29; assay: SRB assay, colorectal cancer cell line HT29; assay type: cell-based
[15] = test system: gastric cancer cell line MKN45; assay: SRB assay, gastric cancer cell line MKN45; assay type: cell-based
[16] = test system: pancreatic cancer cell line suit2; assay: SRB assay, pancreatic cancer cell line suit2; assay type: cell-based
[17] = test system: rat intestinal epithelial cell line IEC-18; assay: SRB assay, rat intestinal epithelial cell line IEC-18; conditions: rat intestinal epithelial cells
[18] = test system: pancreatic cancer cell line KP3; assay: Antitumor activity, pancreatic cancer cell line KP3; assay type: cell-based
[19] = test system: esophageal cancer cell line OE33; assay: SRB assay, esophageal cancer cell line OE33; assay type: cell-based
[20] = test system: pancreatic cancer cell line KP3L; assay: Antitumor activity, pancreatic cancer cell line KP3L; assay type: cell-based
[21] = test system: gastric cancer cell line SH-10-TC; assay: SRB assay, gastric cancer cell line SH-10-TC; assay type: cell-based
[22] = test system: esophageal cancer cell line OE19; assay: Antitumor activity, esophageal cancer cell line OE19; assay type: cell-based
[23] = test system: colorectal cancer cell line SKCO-1; assay: SRB assay, colorectal cancer cell line SKCO-1; assay type: cell-based; conditions: SKCO-1, SRB assay
Protocol: as §1, §2

[24] = test system: gastric cancer cells MKN45; assay: MKN45 subcutaneous transplantation in BALB/c nude mice; assay type: in vivo; conditions: 100 μg daily into the transplantation site, vs PBS
Protocol: Two groups of BALB/c nude mice (n=6/group) were transplanted with 1×10^6 gastric cancer cells MKN45 by subcutaneous injection into their back. Each day from the day following transplantation, 100 μg of ferrichrome dissolved in PBS in one group and PBS alone in the other group were administered into the transplantation site, and the mice were kept under normal breeding conditions for 21 days. Photographs of the transplantation site 1 day and 19 days after transplantation are shown in FIG. 19, and the change in tumor volume ratio when the tumor volume 1 day after transplantation set to 1 is shown in FIG. 20.

[25] = test system: pancreatic cancer cell Suit2; assay: Suit2 subcutaneous transplantation in nude mice; assay type: in vivo; conditions: 100 μg intraperitoneally once every two days for 12 days, vs PBS
Protocol: Two days after subcutaneous transplantation of 1×10^6 pancreatic cancer cell Suit2 in two groups of nude mice (n=5/group), 100 μg of ferrichrome dissolved in PBS in one group and PBS alone in the other group were administered intraperitoneally once every two days for 12 days under normal breeding Conditions. A photograph of the transplantation site 12 days after transplantation is shown in FIG. 21, and the change in volume of the tumor mass is shown in FIG. 22.

[26] = test system: mouse primary intestinal epithelial cells; assay: SRB assay, mouse primary intestinal epithelial cells; assay type: cell-based
Protocol: Mouse primary intestinal epithelial cells were prepared and cultured according to the method as reported previously (Liu X et al., Am J Pathol. 2012 February; 180(2): 599-607).

[27] = test system: tumor in the large intestine; assay: AOM-DSS chemical carcinogenic mice, oral administration; assay type: in vivo; conditions: 50 μg orally daily for 28 days, vs PBS
Protocol: Azoxymethane (AOM) was administered intraperitoneally at 10 mg/kg to BALB/c mice (6 weeks old, male). Following 1 week breeding after AOM treatment, mice were administered drinking water containing dextran sulfate sodium (DSS, MP bio) diluted to 1.5% with distilled water by free access for 1 week. After a 1-week wash-out period, mice were administered drinking water containing dextran sulfate sodium (DSS, MP bio) diluted to 1% with distilled water by free access for 1 week, to prepare chemical carcinogenic models. After one more 1-week wash-out period, 50 μg of ferrichrome diluted in PBS was orally administered daily for 28 days under normal breeding conditions. After breeding, the large intestine was taken out from the mice and the tumor area was measured.
as §4, with “orally” for “intraperitoneally”, “23,” for “25,”, “24.” for “26.”

phosphorylated JNK = assay: Western blotting for phosphorylated JNK in SW620; assay type: cell-based; conditions: ferrichrome-treated SW620, Western blotting
[28] = test system: gastric cancer cell line MKN74; assay: Antitumor activity, gastric cancer cell line MKN74; assay type: cell-based

SMILES: N.N.[Cl][Pt][Cl] [cisplatin]
- effect on cell density of IEC-18 [1]: reduced a cell density

SMILES: CC(=O)N([O-])CCC[C@@H]1NC(=O)CNC(=O)CNC(=O)CNC(=O)[C@H](CCCN([O-])C(C)=O)NC(=O)[C@H](CCCN([O-])C(C)=O)NC1=O.[Fe+3] [ferrichrome] (cyclo(GGG[Orn(N5-OH,N5-Ac)][Orn(N5-OH,N5-Ac)][Orn(N5-OH,N5-Ac)]))
- antitumor activity (cell density, OD at 510 nm) [2]: dose-dependent antitumor activity
- induction of apoptosis (TUNEL stain-positive cells) [3]: induction of apoptosis was also confirmed
- antitumor activity [4]: exhibit an antitumor activity
- antitumor activity [5]: exhibit an antitumor activity
- growth of the tumor mass (tumor mass volume) [6]: markedly inhibited the growth of the tumor mass
- antitumor activity [7]: exhibited an antitumor activity
- expression of PARP (PARP): increased dose-dependently
- antitumor activity [8]: exhibit an antitumor activity
- antitumor activity (cell density, OD at 510 nm) [9]: dose-dependent antitumor activity
- antitumor activity compared with 5-FU and cisplatin [9]: higher antitumor activity
- antitumor activity (cell density, OD at 510 nm) ([9]; listed as Ferrichrome): strong antitumor activity
- antitumor activity (cell density, OD at 510 nm) [10]: dose-dependent antitumor activity
- expression of cleaved caspase-3 (cleaved caspase-3): increased dose-dependently
- blood ALT (alanine aminotransferase) [11]: No significant changes
- blood AST (aspartate aminotransferase) [11]: No significant changes
- serum iron [11]: No significant changes
- tumor area in the large intestine [12]: significantly suppressed
- expression of DDIT3 ([13]; SW620, RT-PCR and Western blotting): enhanced expression
- mRNA expression level of DDIT3 ([13]; SW620 treated vs untreated, high-throughput sequence analysis): remarkable change (increase in expression)
- antitumor activity [14]: exhibited an antitumor activity
- antitumor activity (cell density, OD at 510 nm) [15]: dose-dependent antitumor activity
- antitumor activity (cell density, OD at 510 nm) [16]: dose-dependent antitumor activity
- effect on cell density of IEC-18 [17]: not significantly reducing cell densities; also recorded: did not significantly affect the cell density
- antitumor activity [18]: exhibit an antitumor activity
- antitumor activity (cell density, OD at 510 nm) [19]: dose-dependent antitumor activity
- antitumor activity [20]: exhibit an antitumor activity
- antitumor activity (cell density, OD at 510 nm) [21]: dose-dependent antitumor activity
- antitumor activity [22]: exhibit an antitumor activity
- antitumor activity (cell density, OD at 510 nm) [23]: exhibited an antitumor activity
- tumor volume ratio (volume 1 day after transplantation set to 1) ([24]; 21 days): suppressed
- tumor mass size at the transplantation site [24]: reduced to such an extent that it could be clearly distinguished by the naked eye
- increase in tumor volume [25]: markedly suppressed
- effect on cell density of mouse primary intestinal epithelial cells [26]: not significantly reducing cell densities
- tumor area in the large intestine [27]: significantly suppressed
- expression of phosphorylated JNK (phosphorylated JNK): increased
- antitumor activity [28]: exhibit an antitumor activity

- effect on cell density of IEC-18 [1]: reduced a cell density
SMILES: O=c1[nH]cc(F)c(=O)[nH]1 [5-FU, 5-fluorouracil]
